Test: Analytical evaluation of the BPO release out of the silica shell (time for yellow color appearance, KI/sodium thiosulfate)
Assay type: physicochemical
Conditions: free (uncoated) BPO, 0 coatings, no aging
Description: The release profile of BPO out of the silica shell was done in a water/Acetonitrile solution, which is capable of dissolving BPO. The method is based on the strong oxidation properties of BPO. BPO reacts with potassium iodine (KI) ions to form I2, which gives a color reaction. I2 is than reduces back to I^− using sodium thiosulfate (STS) to eliminate the color. Each 12.11 mg of oxidizing BPO was reduced by 1 ml of 0.1M STS.
Solution A is composed of deionized water, acetone, 0.1M STS solution and KI.
The following table includes the ratios between the components in order to distinguish a certain % of released BPO.
Suspension B, preparation of BPO: weigh 200 mg of BPO as 100% (1 g as 20% suspension) into 5 ml measuring bottle and fill with deionized water up to 5 ml.
Procedure: Into 50 ml glass beaker add 40 ml of solution A and the 5 ml of suspension B and measure the time for yellow color appearance.

time for 30 % of BPO released: 0.5 min | time for 90 % of BPO released: 1 min
Compound: O=C(OOC(=O)c1ccccc1)c1ccccc1 [Free BPO, benzoyl peroxide]

Reference: patent publication US12350382B2, “Method for preparing particles comprising metal oxide coating and particles with metal oxide coating” (priority 2007, dated 2025)
